Results from US12582677B2, “Methods for producing retinal tissue and retina-related cell” (SUMITOMO CHEMICAL COMPANY, LIMITED, priority 2011, dated 2026).

Columns and labels:
Format in all cases: cell-based
[1] = test system: Crx::GFP knock-in human ES cell-derived retinal tissue; assay: Treatment of human ES cell-derived retinal tissue with DAPT: GFP fluorescence, Recoverin and Brn3 immunostaining; details: 10 μM DAPT added day 29
Experimental: CrX::GFP knock-in human ES cells (derived from KhES-1) were cultured according to the methods described in “Ueno, M. et al. PNAS 2006”, “Watanabe, K. et al. Nat Biotech 2007” and used for the experiment. As the medium, DMEM/F12 medium (Invitrogen) added with 20% KSR (Knockout Serum Replacement; Invitrogen), 0.1 mM 2-mercaptoethanol, 1 mM pyruvic acid, and 5 to 10 ng/ml bFGF was used. The ES cells were dispersed into single cells by using 0.25% trypsin-EDTA (Invitrogen), and floating-cultured in a serum-free medium (100 μl) at 37° C., 5% CO2 to 9×10^3 cells per well of a non-cell adhesive 96-well culture plate (SUMILON spheroid plate, SUMITOMO BAKELITE CO., LTD.). As the serum-free medium in this case, a serum-free medium obtained by adding 20% KSR, 0.1 mM 2-mercaptoethanol, 1 mM pyruvic acid, 20 μM Y27632 and a substance inhibiting the Wnt signal pathway (3 μM IWR1e) to G-MEM medium was used. Matrigel was added in an amount of 1/100 per volume from day 2 of the floating culture and floating culture was performed. Fetal calf serum in an amount of 1/10 per volume and a substance acting on the Shh signal pathway (100 nM SAG) were added on day 12 of floating culture and the floating culture was performed to produce a retinal tissue. A substance acting on the Notch signal (10 μM DAPT (gamma secretase activity inhibitor)) was added to the retinal tissue on day 29 from the start of the floating culture, observed with a fluorescence microscope on day 41 from the start of the floating culture (day 12 after the addition), and fixed with 4% para-formaldehyde on day 43 from the start of the floating culture (day 14 after the addition), and a frozen section was prepared. The prepared frozen section was immunostained for Recoverin, which is one of the marker genes of photoreceptor, and Brn3, which is one of the marker genes of ganglion cells, and the results were compared between the presence and absence of DAPT-addition.

[2] = test system: human ES cell-derived retinal tissue after freeze-thawing; assay: Treatment of human ES cell-derived retinal tissue after freeze-thawing with DAPT: GFP fluorescence, Recoverin and Brn3 immunostaining; details: tissue freeze-thawed day 33, 10 μM DAPT added day 38
Experimental: RAX::GFP knock-in human ES cells (derived from KhES-1) were cultured according to the methods described in “Ueno, M. et al. PNAS 2006”, “Watanabe, K. et al. Nat Biotech 2007” and used for the experiment. As the medium, DMEM/F12 medium (Invitrogen) added with 20% KSR (Knockout Serum Replacement; Invitrogen), 0.1 mM 2-mercaptoethanol, 1 mM pyruvic acid, and 5 to 10 ng/ml bFGF was used. For the production of retinal tissue by floating culture, the ES cells were dispersed into single cells by using 0.25% trypsin-EDTA (Invitrogen), and floating-cultured in a serum-free medium (100 μl) at 37° C., 5% CO2 to 9×10^3 cells per well of a non-cell adhesive 96-well culture plate (SUMILON spheroid plate, SUMITOMO BAKELITE CO., LTD.). As the serum-free medium in this case, a serum-free medium obtained by adding 20% KSR, 0.1 mM 2-mercaptoethanol, 1 mM pyruvic acid, 20 μM Y27632 and a substance inhibiting the Wnt signal pathway (3 μM IWR1e) to G-MEM medium was used. […] Matrigel was added in an amount of 1/100 per volume from day 2 of the floating culture and floating culture was performed. Fetal calf serum in an amount of 1/10 per volume and a substance acting on the Shh signal pathway (100 nM SAG) were added on day 12 from the start of the floating culture and the floating culture was performed to produce a retinal tissue. The produced retinal tissue on day 33 from the start of the floating culture was freeze-thawed, and a Notch signal action inhibitory substance (10 μM DAPT) was added to the retinal tissue on day 38 from the start of the floating culture. […] The prepared frozen section was immunostained for Recoverin, which is one of the marker genes of photoreceptor, and Brn3, which is one of the marker genes of ganglion cells, and the results were compared between the presence and absence of DAPT-addition.

[3] = test system: RAX::GFP knock-in human ES cells; assay: Production of retinal tissue from human ES cell aggregates: GFP-expressing (retinal progenitor) cells by fluorescence microscopy and FACS
Experimental: RAX::GFP knock-in human ES cells (derived from KhES-1) were cultured according to the methods described in “Ueno, M. et al. PNAS 2006”, “Watanabe, K. et al. Nat Biotech 2007” and used for the experiment. As the medium, DMEM/F12 medium (Invitrogen) added with 20% KSR (Knockout Serum Replacement; Invitrogen), 0.1 mM 2-mercaptoethanol, 1 mM pyruvic acid, and 5 to 10 ng/ml bFGF was used. The ES cells were dispersed into single cells by using 0.25% trypsin-EDTA (Invitrogen), and floating-cultured in a serum-free medium (100 μl) at 37° C., 5% CO2 to 9×10^3 cells per well of a non-cell adhesive 96-well culture plate (SUMILON spheroid plate, SUMITOMO BAKELITE CO., LTD.). As the serum-free medium in this case, a serum-free medium obtained by adding 20% KSR, 0.1 mM 2-mercaptoethanol, 1 mM pyruvic acid and 20 μM Y27632 to G-MEM medium was used. During the floating culture, Matrigel in an amount of 1/100 per volume was added from day 2 from the start of the floating culture. Thereafter, fluorescence microscopic observation was regularly performed while continuing the floating culture.
RAX::GFP knock-in human ES cells (derived from KhES-1) were cultured according to the methods described in “Ueno, M. et al. PNAS 2006”, “Watanabe, K. et al. Nat Biotech 2007” and used for the experiment. As the medium, DMEM/F12 medium (Invitrogen) added with 20% KSR (Knockout Serum Replacement; Invitrogen), 0.1 mM 2-mercaptoethanol, 1 mM pyruvic acid, and 5-10 ng/ml bFGF was used. For the production of retinal tissue by floating culture, the ES cells were dissociated into single cells by using 0.25% trypsin-EDTA (Invitrogen), and floating-cultured in a serum-free medium (100 μl) at 37° C., 5% CO2 to 9×10^3 cells per well of a non-cell adhesive 96-well culture plate (SUMILON spheroid plate, SUMITOMO BAKELITE CO., LTD.). As the serum-free medium in this case, a serum-free medium obtained by adding 20% KSR, 0.1 mM 2-mercaptoethanol, 1 mM pyruvic acid, 20 μM Y27632 and a substance inhibiting the Nodal signal pathway (10 μM SB431542) to G-MEM medium was used. During the floating culture, Matrigel in an amount of 1/100 per volume was added from day 2 from the start of the floating culture. Thereafter, the floating culture was continued and fluorescence microscopic observation and confirmation of the proportion of the GFP-expressing cells were performed by FACS on day 18 from the start of the floating culture.
RAX::GFP knock-in human ES cells (derived from KhES-1) were cultured according to the methods described in “Ueno, M. et al. PNAS 2006”, “Watanabe, K. et al. Nat Biotech 2007” and used for the experiment. As the medium, DMEM/F12 medium (Invitrogen) added with 20% KSR (Knockout Serum Replacement; Invitrogen), 0.1 mM 2-mercaptoethanol, 1 mM pyruvic acid, and 5 to 10 ng/ml bFGF was used. For the production of retinal tissue by floating culture, the ES cells were dispersed into single cells by using 0.25% trypsin-EDTA (Invitrogen), and floating-cultured in a serum-free medium (100 μl) at 37° C., 5% CO2 to 9×10^3 cells per well of a non-cell adhesive 96-well culture plate (SUMILON spheroid plate, SUMITOMO BAKELITE CO., LTD.). As the serum-free medium in this case, a serum-free medium obtained by adding 20% KSR, 0.1 mM 2-mercaptoethanol, 1 mM pyruvic acid, 20 μM Y27632 and a substance inhibiting the Wnt signal pathway (3 μM IWR1e) to G-MEM medium was used. During the floating culture, Matrigel in an amount of 1/100 per volume was added from day 2 from the start of the floating culture. Thereafter, the floating culture was continued and fluorescence microscopic observation and confirmation of the proportion of the GFP-expressing cells were performed by FACS on day 18 from the start of the floating culture.
RAX::GFP knock-in human ES cells (derived from KhES-1) were cultured according to the methods described in “Ueno, M. et al. PNAS 2006”, “Watanabe, K. et al. Nat Biotech 2007” and used for the experiment. […]

[4] = test system: RAX::GFP knock-in human ES cells; assay: Production of optic-cup-like structure from human ES cell aggregates; details: 3 μM CHIR99021 and 100 nM SAG together in serum-containing medium from day 15
Experimental: RAX::GFP knock-in human ES cells (derived from KhES-1) were cultured according to the methods described in “Ueno, M. et al. PNAS 2006”, “Watanabe, K. et al. Nat Biotech 2007” and used for the experiment. As the medium, DMEM/F12 medium (Invitrogen) added with 20% KSR (Knockout Serum Replacement; Invitrogen), 0.1 mM 2-mercaptoethanol, 1 mM pyruvic acid, and 5 to 10 ng/ml bFGF was used. For the formation of aggregate by floating culture, the ES cells were dispersed into single cells by using 0.25% trypsin-EDTA (Invitrogen), suspended in a serum-free medium (100 μl) to 9×10^3 cells per well of a non-cell adhesive 96-well culture plate (SUMILON spheroid plate, SUMITOMO BAKELITE CO., LTD.) to allow for rapid formation of aggregates, and floating cultured at 37° C., 5% CO2. As the serum-free medium in this case, a serum-free medium obtained by adding 20% KSR, 0.1 mM 2-mercaptoethanol, 1 mM pyruvic acid, 20 μM Y27632 and a substance inhibiting the Wnt signal pathway (3 μM IWR1e) to G-MEM medium was used. During the floating culture, Matrigel in an amount of 1/100 per volume was added from day 2 from the start of the floating culture. The floating aggregate was transferred to a serum-free medium without a substance inhibiting the Wnt signal pathway on day 12 from the start of the floating culture, fetal calf serum in an amount of 1/10 per volume was added and the aggregate was cultured. […]

[5] = 100 nM SAG and fetal calf serum 1/10 added day 12, with 3 μM IWR1e and Matrigel, day 18

In the case of C[C@H](NC(=O)Cc1cc(F)cc(F)c1)C(=O)N[C@H](C(=O)OC(C)(C)C)c1ccccc1 [DAPT, N-[N-(3,5-difluorophenacetyl)-L-alanyl]-S-phenylglycine t-butyl ester], the “ganglion cells (immunostaining of Brn3)” value ([1]; fixed day 43) is reported as “increased”, the “increase of Recoverin-positive cells (immunostaining of frozen section)” value ([1]; fixed day 43) is reported as 3- to 5 fold and the “GFP-expressing cells (fluorescence microscope) compared to no DAPT” value ([1]; observed day 41) is reported as “markedly increased”. The “Recoverin-positive cells produced (immunostaining of frozen section)” value ([2]; day 49) was “about 5 fold”, the “ganglion cells (immunostaining of Brn3)” value ([2]; day 49) was “produced” and the “GFP-expressing cells (fluorescence microscope) compared to no DAPT” value ([2]; observed day 49) was “markedly produced”.
In the case of O=C(Nc1cccc2cccnc12)c1ccc(N2C(=O)[C@@H]3[C@H](C2=O)[C@@H]2C=C[C@H]3C2)cc1 [IWR1e], the “GFP-expressing cells (fluorescence microscopic observation)” value ([3]; 3 μM IWR1e in serum-free medium, Matrigel 1/100 from day 2, compared to Comparative Examples 1 and 2) is reported as “clearly increased” and the “proportion of the GFP-expressing cells (FACS)” value ([3]; 3 μM IWR1e, Matrigel, no serum (Comparative Example 3), day 18 of floating culture) is reported as 3.2%.
For CNC1CCC(N(Cc2cccc(-c3ccncc3)c2)C(=O)c2sc3ccccc3c2Cl)CC1 (stereo not shown) [SAG], the “GFP-expressing cells (fluorescence microscopic observation)” value [3, 5] was “a very high number of GFP-expressing cells emerged”, the “proportion of the GFP-expressing cells (FACS)” value [3, 5] was “not less than 70%” and the “increase of proportion of GFP-expressing cells compared to Comparative Example 3” value ([3]; Example 2: serum and 100 nM SAG added simultaneously, with 3 μM IWR1e and Matrigel) was “about 24 fold”. The “optic-cup-like structure formation on aggregate” value [4] was “a clear optic-cup-like structure was formed”.
In the case of NC(=O)c1ccc(-c2nc(-c3ccc4c(c3)OCO4)c(-c3ccccn3)[nH]2)cc1 [SB431542], the “GFP-expressing cells (fluorescence microscopic observation)” value ([3]; 10 μM SB431542 in serum-free medium, Matrigel 1/100 from day 2) is reported as “somewhat found”.
